Results from US8017828B2, “Utilization of rare sugars in plant or microorganism” (Shikoku Research Institute Incorporated, priority 2004, dated 2011).

Key:
[1] = tested on: Pythium ultimum IFO 32426 strain; assay: Oospore formation of Pythium ultimum in sugar solution; format: cell-based; conditions: 0.05% (w/v) sugar solution, 23° C., 4 days
Description: With regard to Pythium ultimum that causes damping-off of spinach and the like, an effect of a rare sugar on oospore formation was examined.
First, as the Pythium ultimum, IFO 32426 strain was used, and static culture thereof was carried out with 200 ml of V8 medium at 23° C. for 1 week. The resulting mycelial mat was well washed with sterile water and divided into 16 equal parts with forceps. This mycerial body was disentangled uniformly to form a small piece and immersed in 20 ml of a sugar solution at a concentration of 0.05% (w/v) and let stand at 23° C. for 4 days. […] Further, the same experiment was carried out using Pythium zingiberum IFO 30817 strain.

[2] = tested on: Brassica rapa var. amplexicaulis (variety: “Haru Ichiban”); assay: Foliar spraying of sugar on Brassica rapa var. amplexicaulis; format: in vivo; conditions: 0.5% solution sprayed; for Terminal bud weight: control (water) 3.0; for Stem diameter: control (water) 22.8; for Number of lateral buds: control (water) 32.3; for Plant length: control (water) 49.3; for Total weight of lateral buds: control (water) 235.3
Text: Brassica rapa var. amplexicaulis is a vegetable in the Brassica family, and flower buds are harvested and used. As the same species of vegetables, broccoli, cauliflower and the like are exemplified, which are important horticultural crops. As for such a vegetable, development of flower buds has a large effect on the crop yield. Therefore, during the house cultivation of Brassica rapa var. amplexicaulis (variety: “Haru Ichiban”), foliar spraying of a sugar solution at a concentration of 0.5% (w/v) was carried out and effects on the growth and the development of flower buds were examined. The seeds of Brassica rapa var. amplexicaulis were sown in a 128-cell tray on Oct. 23, 2003 and raised for about 20 days. Then, the raised seedlings were transplanted for permanent planting with a planting distance of 40 cm on two rows with an inter row space of 50 cm in separate beds filled with soil for cultivation “Hana to Yasai no Tsuchi (garden soil for flowers and vegetables)” (Kurokawa Shubyo En) on Nov. 12, 2003. The cultivation was carried out by a simple fertigation system, and irrigation was carried out for 1 hour on a daily basis with a 2,000-fold dilution of Hyponex through an irrigation tube. The cultivation was carried out in a vinyl house without heating with side windows open. From Dec. 18, 2003, water or a 0.5% (w/v) sugar solution was sprayed onto the whole plant on a three times weekly basis. As for the types of sugars, D-glucose, D-fructose and D-psicose were used and five plants were cultivated for each test plot. On Feb. 23, 2004, three plants of medium size were harvested and a survey was carried out. The survey items were plant length, stem diameter, number of lateral buds, terminal bud weight, total weight of lateral buds and the like.

Cymbidium = assay: Growth of Cymbidium flask seedlings in tissue culture; format: in vivo; conditions: 0.005% in MS medium; for Number of lateral buds: non 0; for Aerial part weight: non 2.1; for Underground part weight: non 3.8; for Number of roots: non 10.8
Text: (§1) Flask seedlings of Phalaenopsis orchid and Cymbidium obtained by tissue culture were used in an experiment.
As for Cymbidium, in the same manner as the above Phalaenopsis orchid, MS medium supplemented with D-psicose, D-glucose, D-fructose or D-allose was used, and the flask seedlings were aseptically transplanted on Oct. 4, 2004. At this time, 4 or 5 leaves and 2 roots were left and the rest of them were cut off using a knife. As for the number of seedlings, 4 seedlings were used for 1 test plot, and glass bottles with a capacity of 900 ml and having a hole with a diameter of about 1 cm for preventing dew condensation made in the upper region was used as culture containers. The cultivation was carried out in a culture chamber at 25° C. and 5,000 Lux (12-hour day length) Then, on Feb. 1, 2005, a survey was carried out with regard to the growth conditions of aerial part and underground part, the number of roots and the number of lateral buds. The results are shown in Table 9 (effect of addition of rare sugar on the growth of seedlings of Cymbidium).

[3] = tested on: rice plant (variety: “Hinohikari”); assay: Foliar spraying of sugar on pot-grown rice; format: in vivo
Description: After seeds of a rice plant (variety: “Hinohikari”) were put in a nylon net and subjected to sterilization and a germination induction treatment in a growth chamber at 30° C. for 2 days while they were soaked in 0.1% (w/v) Benlate (Hokko Chemical Industry Co., Ltd.) in accordance with a common method, they were sown in a nursery tray filled with “Kumiai Ryujou Baido SD” (Kureha Chemical Industry Co., Ltd.) and raised in a phytotron (day temperature: 25° C. and night temperature: 18° C.) for about 2 weeks. Then, Wagner pots with a size of 1/5,000a were filled with “Kumiai Ryujou Baido SD” (Kureha Chemical Industry Co., Ltd.) and the raised rice seedlings were transplanted for permanent planting to the pots and the cultivation was started on Jul. 2, 2003 in the open air under the condition that the soil was covered with water in the pots. From Jul. 16, 2003, when the seedlings were confirmed to take root, water, a 0.02% (w/v) sugar solution, a 0.1% (w/v) sugar solution or a 0.5% (w/v) sugar solution was sprayed onto the whole plant on a three times weekly basis. As for the types of sugars, D-glucose, D-fructose and D-psicose were used and three pots were cultivated for each test plot. The cultivation was continued in such a manner that the water in pots was not dried up and after 5 g of Magamp K medium (HYPONeX JAPAN CORP., Ltd.) per pot was added as additional fertilization on Aug. 29, 2003, and the harvest and survey were carried out on Sep. 22, 2003. The survey items were plant length, number of tillers, leaf weight, husk weight, underground part weight and the like.

Phalaenopsis orchid = assay: Growth of Phalaenopsis orchid flask seedlings in tissue culture; format: in vivo; conditions: 0.005% in MS medium; for Underground part weight: non 2.9; for Aerial part weight: non 4.7; for Number of roots: non 12.5
Description: as §1
As for Phalaenopsis orchid, MS medium supplemented with D-psicose, D-glucose or D-fructose at a concentration of 0.005% (w/v) was used, and the flask seedlings were aseptically transplanted on Sep. 6, 2004. As for the number of seedlings, 4 seedlings were used for 1 test plot, and glass bottles with a capacity of 500 ml and having a hole with a diameter of about 1 cm for preventing dew condensation made in the upper region was used as culture containers. The cultivation was carried out in a culture chamber at 25° C. and 5,000 Lux (12-hour day length) Then, on Jan. 24, 2005, a survey was carried out with regard to the growth conditions of aerial part and underground part and the number of roots. The results are shown in Table 8 (effect of addition of D-psicose on the growth of seedlings of Phalaenopsis orchid).

## O=C[C@H](O)[C@H](O)[C@H](O)[C@H](O)CO [D-allose]
[1]
  oospore formation: not observed at all
[2]
  Terminal bud weight: 7.9 g
  Stem diameter: 23.6 mm
  Number of lateral buds: 38.0
  Plant length: 60.7 cm
  Total weight of lateral buds: 222.5 g
Cymbidium
  Number of lateral buds: 3.8 buds
  Aerial part weight: 2.7 g
  Underground part weight: 4.0 g
  Number of roots: 12.8 roots

## O=C(CO)[C@@H](O)[C@H](O)[C@H](O)CO [D-fructose, reference compound]
[1]
  oospore formation: no effect
[2]
  Terminal bud weight: 7.4 g
  Stem diameter: 19.9 mm
  Number of lateral buds: 41.3
  Plant length: 55.8 cm
  Total weight of lateral buds: 231.1 g
Cymbidium
  Number of lateral buds: 0 buds
  Aerial part weight: 2.0 g
  Underground part weight: 3.8 g
  Number of roots: 10.0 roots
[3]; 0.02% sugar solution sprayed
  Dry husk weight: 16.8 g
  Dry leaf weight: 43.3 g
  Number of tillers: 29.3
  Plant length: 85.7 cm
[3]; 0.10% sugar solution sprayed
  Dry husk weight: 16.1 g
  Dry leaf weight: 41.0 g
  Number of tillers: 29.3
  Plant length: 84.3 cm
[3]; 0.50% sugar solution sprayed
  Dry husk weight: 17.2 g
  Dry leaf weight: 36.4 g
  Number of tillers: 27.0
  Plant length: 85.7 cm
Phalaenopsis orchid
  Underground part weight: 4.0 g
  Aerial part weight: 5.7 g
  Number of roots: 14.8 roots

## O=C[C@H](O)[C@@H](O)[C@H](O)[C@H](O)CO [D-glucose, reference compound]
[1]
  oospore formation: no effect
[2]
  Terminal bud weight: 5.7 g
  Stem diameter: 20.6 mm
  Number of lateral buds: 32.0
  Plant length: 56.3 cm
  Total weight of lateral buds: 198.1 g
Cymbidium
  Number of lateral buds: 0 buds
  Aerial part weight: 1.9 g
  Underground part weight: 2.9 g
  Number of roots: 9.5 roots
[3]; 0.02% sugar solution sprayed
  Dry husk weight: 17.2 g
  Dry leaf weight: 34.0 g
  Number of tillers: 29.3
  Plant length: 74.0 cm
[3]; 0.10% sugar solution sprayed
  Dry husk weight: 17.6 g
  Dry leaf weight: 35.5 g
  Number of tillers: 30.0
  Plant length: 75.5 cm
[3]; 0.50% sugar solution sprayed
  Dry husk weight: 17.9 g
  Dry leaf weight: 37.3 g
  Number of tillers: 31.3
  Plant length: 74.8 cm
Phalaenopsis orchid
  Underground part weight: 3.7 g
  Aerial part weight: 5.1 g
  Number of roots: 12.3 roots

## O=C(CO)[C@H](O)[C@H](O)[C@H](O)CO [D-psicose]
[1]
  oospore formation: inhibited
[2]
  Terminal bud weight: 8.8 g
  Stem diameter: 26.9 mm
  Number of lateral buds: 43.0
  Plant length: 61.2 cm
  Total weight of lateral buds: 225.0 g
Cymbidium
  Number of lateral buds: 0.5 buds
  Aerial part weight: 2.0 g
  Underground part weight: 4.1 g
  Number of roots: 10.8 roots
[3]; 0.02% sugar solution sprayed
  Dry husk weight: 16.8 g
  Dry leaf weight: 36.3 g
  Number of tillers: 33.7
  Plant length: 73.2 cm
[3]; 0.10% sugar solution sprayed
  Dry husk weight: 14.7 g
  Dry leaf weight: 31.8 g
  Number of tillers: 33.5
  Plant length: 76.3 cm
[3]; 0.50% sugar solution sprayed
  Dry husk weight: 10.2 g
  Dry leaf weight: 27.9 g
  Number of tillers: 50.0
  Plant length: 71.3 cm
Phalaenopsis orchid
  Underground part weight: 4.1 g
  Aerial part weight: 6.1 g
  Number of roots: 16.0 roots
